Measured values published in patent US20080275093A1, “Diuretic Compounds Comprising Heterocyclic Nitric Oxide Donor Groups, Compositions and Methods of Use” (NitroMed, Inc., priority 2004, published 2008).

melting point | Structure (SMILES)
112 to 115 °C | Cc1c(COC(=O)COC(=O)c2cc(S(N)(=O)=O)c(Cl)cc2NCc2ccco2)no[n+]1[O-] [Example 2, Benzoic acid, 5-(aminosulfonyl)-4-chloro-2-[(2-furanylmethyl)amino]-, 2-[(4-methyl-5-oxido-1,2,5-oxadiazol-3-yl)methoxy]-2-oxoethyl ester]
182 to 183 °C | Cc1c(COC(=O)c2cc(S(N)(=O)=O)c(Cl)cc2NCc2ccco2)no[n+]1[O-] [Example 1, Benzoic acid, 5-(aminosulfonyl)-4-chloro-2-[(2-furanylmethyl)amino]-, (4-methyl-5-oxido-1,2,5-oxadiazol-3-yl)methyl ester]
169 to 172 °C | Cc1c(COC(=O)c2cc(S(N)(=O)=O)c(Cl)cc2N)no[n+]1[O-] [Example 3, Benzoic acid, 2-amino-5-(aminosulfonyl)-4-chloro-, (4-methyl-5-oxido-1,2,5-oxadiazol-3-yl)methyl ester]
